{"source": "patent US10823735B2", "about": "“Monoclonal antibody for predicting tamoxifen response in breast cancer patients” (The University of Hong Kong, priority 2015, dated 2020)", "key": {"[1]": {"system": "ZR75-BQ323636.1 and MCF7-BQ323636.1", "assay": "MTT assay, tamoxifen response of BQ323636.1 overexpressing cell lines", "type": "cell-based, Human", "conditions": "BQ323636.1 overexpression versus empty vector cell lines", "description": "Cell lines—Human breast cancer cell lines MCF7 and ZR-75-1 were purchased from American Type Culture Collection and were re-authenticated by short tandem repeat profiling (Zhang, Gong et al. 2013). MCF7 was cultured in Dulbecco's Modified Eagle's Medium supplemented with 10% FBS and 1% penicillin/streptomycin and ZR-75-1 was cultured in Improved Minimum Essential Medium (IMEM) supplemented with 5% FBS and 1% penicillin/streptomycin. LCC2 and AK-47 are the two tamoxifen resistant cell lines derived from MCF7 and ZR-75-1, respectively and were kindly provided by Dr. Robert Clarke (Georgetown University Medical School, Washington, D.C.) (Wong, Dai et al. 2006) and have been used in our previous study (Zhang, Gong et al. 2013). LCC2 and AK-47 were both cultured in IMEM supplemented with 5% charcoal-stripped FBS and 1% penicillin/streptomycin. All the cell lines used in this study have been passaged and kept fewer than 6 months after the re-authentication or thawing. […]\nMTT assay—Cells were seeded at a density of 6×10^3 cells/well. […] Extinction of the samples was measured by the Infinite 200 microtiter plate reader (Tecan) at 570 nm with a reference wavelength at 750 nm. Background MTT readings were subtracted from the samples. […]"}, "ZR75-BQ323636.1": {"system": "ZR75-BQ323636.1", "assay": "Orthotopic nude mouse model, ZR75-BQ323636.1", "type": "in vivo, nude mice", "conditions": "ZR75-BQ323636.1, mammary fat pad, daily subcutaneous injection in peanut oil", "description": "(§1) Orthotopic mouse model—The cell lines mixed with Matrigel (BD Biosciences) at the ratio of 1:1 were inoculated into the abdominal mammary fat pad of the 5 to 6 week old female nude mice. When the tumor were palpable, the mice were randomized into treatment and control groups where treatment groups received daily subcutaneous injection of tamoxifen (Sigma) dissolved in peanut oil (Sigma) and the control groups received subcutaneous injection of the solvent only. Tumor sizes were measured by caliper and tumor volume was calculated as (length*width*width)/2. Tumor growth rate was expressed as the % of tumor volume change calculated as the tumor volume measured at the indicated time point normalized against the tumor volume at day 0*100%. This protocol has been reviewed and approved by Committee on the Use of Live Animals in Teaching and Research (CULATR), the University of Hong Kong (CULATR No.: 3259-14)\n(§2) We further validated the effect of BQ323636.1 overexpression in conferring tamoxifen resistance using a nude mouse model. […] Tumor sizes were measured by caliper and tumor volume was calculated as (length*width*width)/2. Tumor growth rate was expressed as the % of tumor volume change calculated as the tumor volume measured at the indicated time point normalized against the tumor volume at day 0*100%. […]"}, "MCF7-vector": {"system": "MCF7-vector", "assay": "Orthotopic nude mouse model, MCF7-vector", "type": "in vivo, nude mice", "conditions": "mammary fat pad, daily subcutaneous injection in peanut oil", "description": "as §1, §2"}, "ZR75-vector": {"system": "ZR75-vector", "assay": "Orthotopic nude mouse model, ZR75-vector", "type": "in vivo, nude mice", "conditions": "mammary fat pad, daily subcutaneous injection in peanut oil", "description": "as §1, §2"}, "MCF7-BQ323636.1": {"system": "MCF7-BQ323636.1", "assay": "Orthotopic nude mouse model, MCF7-BQ323636.1", "type": "in vivo, nude mice", "conditions": "MCF7-BQ323636.1, mammary fat pad, daily subcutaneous injection in peanut oil", "description": "as §1, §2"}}}
{"smiles": "CC/C(=C(\\c1ccccc1)c1ccc(OCCN(C)C)cc1)c1ccccc1", "note": "[tamoxifen]", "values": [{"measurement": "tamoxifen resistance in MTT assay", "setting": "[1]", "value": "induced the tamoxifen resistance"}, {"measurement": "tumor growth versus solvent control group", "setting": "ZR75-BQ323636.1", "value": "no change of tumor growth"}, {"measurement": "tumor growth versus solvent control group", "setting": "MCF7-vector", "value": "significantly reduced tumor growth"}, {"measurement": "tumor growth versus solvent control group", "setting": "ZR75-vector", "value": "significantly reduced tumor growth"}, {"measurement": "tumor growth versus solvent control group", "setting": "MCF7-BQ323636.1", "value": "no change of tumor growth"}]}
